The assay addresses T1, recombinant human 11 β-HSD1 (Homo sapiens, UniProt P28845).
T1 construct: made in house; host or cells: E. coli
The assay can be described thus: 11 β-HSD1 SPA Assay (Scintillation Proximity Assay). In kind it is biochemical. In a few lines:
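E. coli-expressed human enzyme (30-100 nM) with tritiated cortisone 40 nM and NADPH 1 mM in HEPES buffer pH7.4, 2 hours at room temperature. Stopped with protein A SPA beads carrying anti-cortisol antibody and glycyrrhetinic acid; counted after overnight incubation. IC50 from percent inhibition between no-enzyme and no-compound signals.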
(Scintillation proximity formats need no separation of bound from free tracer.)

Results on 18 molecules are retold here after patent publication US8163771B2, “11 β-HSD1 modulators” (Exelixis, Inc., priority 2008, dated 2012).

A value given as a limit tells only on which side of the number the result lay.

T1 sequence (P28845 whole entry): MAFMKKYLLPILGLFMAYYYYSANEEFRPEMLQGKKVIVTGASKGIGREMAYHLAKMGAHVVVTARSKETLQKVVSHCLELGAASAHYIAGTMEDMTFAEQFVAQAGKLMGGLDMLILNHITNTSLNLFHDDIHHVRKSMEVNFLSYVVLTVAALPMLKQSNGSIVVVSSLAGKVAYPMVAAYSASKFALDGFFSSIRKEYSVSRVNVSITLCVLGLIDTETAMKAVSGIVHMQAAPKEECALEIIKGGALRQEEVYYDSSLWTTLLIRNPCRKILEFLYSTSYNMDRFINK

By IC50 is commonly meant the point on the concentration scale where inhibition reaches its midpoint. For `C[C@@H](NC(=O)c1ccc(N2C3CCC2CC(NC(=O)C(C)(C)Oc2cc(F)c(Cl)cc2Cl)C3)nc1)C(F)(F)F` (stereo partly drawn) [Example 450, 6-(3-endo-{[2-(2,4-dichloro-5-fluorophenoxy)-2-methylpropanoyl]amino}-8-azabicyclo[3.2.1]oct-8-yl)-N-[(2R)-1,1,1-trifluoropropan-2-yl]pyridine-3-carboxamide], the half-maximal inhibitory concentration (IC50) is below 200 nM.
As for `C[C@@H](NC(=O)c1ccc(N2C3CCC2CC(NC(=O)C(C)(C)Oc2cc(F)c(F)cc2Cl)C3)nc1)C(F)(F)F` (stereo partly drawn) [Example 451, 6-(3-endo-{[2-(2-chloro-4,5-difluorophenoxy)-2-methylpropanoyl]amino}-8-azabicyclo[3.2.1]oct-8-yl)-N-[(2R)-1,1,1-trifluoropropan-2-yl]pyridine-3-carboxamide], the figure is below 200 nM.
On to `C[C@@H](NC(=O)c1ccc(N2C3CCC2CC(NC(=O)C(C)(C)Oc2ccc(F)cc2Cl)C3)nc1)C(F)(F)F` (stereo partly drawn) [Example 452, 6-(3-endo-{[2-(2-chloro-4-fluorophenoxy)-2-methylpropanoyl]amino}-8-azabicyclo[3.2.1]oct-8-yl)-N-[(2R)-1,1,1-trifluoropropan-2-yl]pyridine-3-carboxamide], for which the IC50 was below 200 nM.
As for `C[C@H](NC(=O)c1ccc(N2C3CCC2CC(NC(=O)C(C)(C)Oc2ccc(C(F)F)cc2Cl)C3)nc1)C(F)(F)F` (stereo partly drawn) [Example 453, 6-[3-endo-({2-[2-chloro-4-(difluoromethyl)phenoxy]-2-methylpropanoyl}amino)-8-azabicyclo[3.2.1]oct-8-yl]-N-[(2S)-1,1,1-trifluoropropan-2-yl]pyridine-3-carboxamide], the figure is below 200 nM.
For the molecule `CC(C)(Oc1ccc(Cl)cc1OC(F)(F)F)C(=O)NC1CC2CCC(C1)N2c1ccc(C(=O)N2CCC(O)C2)cn1` (stereo not drawn) [Example 454, 2-[4-chloro-2-(trifluoromethoxy)phenoxy]-n-(8-{5-[(3-hydroxypyrrolidin-1-yl)carbonyl]pyridin-2-yl}-8-azabicyclo[3.2.1]oct-3-endo-yl)-2-methylpropanamide], the concentration for half-maximal inhibition (IC50) is below 200 nM.
Consider `CC(C)(Oc1ccc(Cl)cc1OC(F)(F)F)C(=O)NC1CC2CCC(C1)N2c1ccc(C(=O)N2CCC[C@H]2CO)cn1` (stereo partly drawn) [Example 455, 2-[4-chloro-2-(trifluoromethoxy)phenoxy]-n-[8-(5-{[(2s)-2-(hydroxymethyl)pyrrolidin-1-yl]carbonyl}pyridin-2-yl)-8-azabicyclo[3.2.1]oct-3-endo-yl]-2-methylpropanamide], for which the IC50 is below 200 nM.
In the case of `CC(C)(Oc1ccc(Cl)cc1Cl)C(=O)NC1CC2CCC(C1)N2c1ccc(C(=O)NC[C@H](O)C(F)(F)F)cn1` (stereo partly drawn) [Example 456, 6-(3-endo-{[2-(2,4-dichlorophenoxy)-2-methylpropanoyl]amino}-8-azabicyclo[3.2.1]oct-8-yl)-N-[(2S)-3,3,3-trifluoro-2-hydroxypropyl]pyridine-3-carboxamide], the IC50 was below 200 nM.
For the molecule `CC(C)(Oc1ccc(F)cc1Cl)C(=O)NC1CC2CCC(C1)N2c1ccc(C(=O)NCC(O)C(F)(F)F)cn1` (stereo not drawn) [Example 457, 6-(3-endo-{[2-(2-chloro-4-fluorophenoxy)-2-methylpropanoyl]amino}-8-azabicyclo[3.2.1]oct-8-yl)-N-(3,3,3-trifluoro-2-hydroxypropyl)pyridine-3-carboxamide], the IC50 is below 200 nM.
As for `CC(C)(Oc1ccc(Cl)cc1C(F)(F)F)C(=O)NC1CC2CCC(C1)N2c1ccc(C(=O)NCC(O)C(F)(F)F)cn1` (stereo not drawn) [Example 458, 6-[3-endo-({2-[4-chloro-2-(trifluoromethyl)phenoxy]-2-methylpropanoyl}amino)-8-azabicyclo[3.2.1]oct-8-yl]-N-(3,3,3-trifluoro-2-hydroxypropyl)pyridine-3-carboxamide], the figure is below 200 nM; as for `CC(C)(Oc1ccc(F)cc1C(F)(F)F)C(=O)NC1CC2CCC(C1)N2c1ccc(C(=O)NCC(O)C(F)(F)F)cn1` (stereo not drawn) [Example 459, 6-[3-endo-({2-[4-fluoro-2-(trifluoromethyl)phenoxy]-2-methylpropanoyl}amino)-8-azabicyclo[3.2.1]oct-8-yl]-N-(3,3,3-trifluoro-2-hydroxypropyl)pyridine-3-carboxamide], below 200 nM.
In the case of `CC(C)(Oc1cc(CC(=O)O)c(Cl)cc1Cl)C(=O)N[C@H]1C[C@H]2CC[C@@H](C1)N2c1ccc(C(=O)NCC(F)F)cn1` [Example 460, [2,4-dichloro-5-({1-[(8-{5-[(2,2-difluoroethyl)carbamoyl]pyridin-2-yl}-8-azabicyclo[3.2.1]oct-3-endo-yl)amino]-2-methyl-1-oxopropan-2-yl}oxy)phenyl]acetic acid] it was below 200 nM; in that of `CC(C)(Oc1ccc(Cl)cc1Cl)C(=O)NC1CC2CCC(C1)N2c1ccc(C(=O)N2CC[C@@H](O)C2)cn1` (stereo partly drawn) [Example 461, 2-(2,4-dichlorophenoxy)-n-[8-(5-{[(3r)-3-hydroxypyrrolidin-1-yl]carbonyl}pyridin-2-yl)-8-azabicyclo[3.2.1]oct-3-endo-yl]-2-methylpropanamide], below 200 nM.
With `CC(C)(Oc1ccc(Cl)cc1Cl)C(=O)NC1CC2CCC(C1)N2c1ccc(C(=O)N2CC[C@H](O)C2)cn1` (stereo partly drawn) [Example 462, 2-(2,4-dichlorophenoxy)-N-[8-(5-{[(3s)-3-hydroxypyrrolidin-1-yl]carbonyl}pyridin-2-yl)-8-azabicyclo[3.2.1]oct-3-endo-yl]-2-methylpropanamide], the half-inhibitory concentration (IC50) was below 200 nM.
Take `CC(C)(Oc1ccc(Cl)cc1Cl)C(=O)NC1CC2CCC(C1)N2c1ccc(C(=O)NC(CO)C(F)(F)F)cn1` (stereo not drawn) [Example 463, 6-(3-endo-{[2-(2,4-dichlorophenoxy)-2-methylpropanoyl]amino}-8-azabicyclo[3.2.1]oct-8-yl)-N-(1,1,1-trifluoro-3-hydroxypropan-2-yl)pyridine-3-carboxamide]: the IC50 is below 200 nM.
For the molecule `CC(C)(Oc1cc(Cl)c(CO)cc1Cl)C(=O)N[C@H]1C[C@H]2CC[C@@H](C1)N2c1ccc(C(=O)NCC(F)F)cn1` [Example 464, 6-[3-endo-({2-[2,5-dichloro-4-(hydroxymethyl)phenoxy]-2-methylpropanoyl}amino)-8-azabicyclo[3.2.1]oct-8-yl]-N-(2,2-difluoroethyl)pyridine-3-carboxamide], the IC50 is below 200 nM.
In the case of `CC(C)(Oc1ccc(Cl)cc1C(C)(C)O)C(=O)N[C@H]1C[C@H]2CC[C@@H](C1)N2c1ccc(C(=O)NCC(F)F)cn1` [Example 465, 6-[3-endo-({2-[4-chloro-2-(2-hydroxypropan-2-yl)phenoxy]-2-methylpropanoyl}amino)-8-azabicyclo[3.2.1]oct-8-yl]-N-(2,2-difluoroethyl)pyridine-3-carboxamide] it was below 200 nM; in that of `CC(C)(Oc1cc(C(C)(C)O)c(Cl)cc1F)C(=O)N[C@H]1C[C@H]2CC[C@@H](C1)N2c1ccc(C(=O)NCC(F)F)cn1` [Example 466, 6-(3-endo-(2-(4-chloro-2-fluoro-5-(2-hydroxypropan-2-yl)phenoxy)-2-methylpropanamido)-8-azabicyclo[3.2.1]octan-8-yl)-N-(2,2-difluoroethyl)nicotinamide], below 200 nM; in that of `CC(C)(Oc1ccc(F)cc1C(C)(C)O)C(=O)N[C@H]1C[C@H]2CC[C@@H](C1)N2c1ccc(C(=O)NCC(F)F)cn1` [Example 467, N-(2,2-difluoroethyl)-6-(3-endo-(2-(4-fluoro-2-(2-hydroxypropan-2-yl)phenoxy)-2-methylpropanamido)-8-azabicyclo[3.2.1]octan-8-yl)nicotinamide], below 200 nM.
